Legend:
[1] = molecular target: Tyrosine-protein kinase JAK2 (Homo sapiens, UniProt O60674); assay: (§1) Biochemical HTRF Enzyme Assay Protocol: The basic assay protocol is as follows: First, 250 nL of diluted compounds in DMSO were dispensed into the wells of a dry 384-well Black plate (GreinerFluotrac™ catalog number: 781076; Greiner Bio-One GmbH, Frickenhausen, Germany) using a Labcyte Echo® 555 acoustic dispenser ([…], Sunnyvale, Calif., USA). Subsequent reagent additions employed an Agilent™ Bravo™ liquid handling system (Aligent Technologies, Santa Clara, Calif., USA). […] After equilibration, 2 μL of 10×ATP in 1× assay buffer was added to initiate the kinase reaction and the plates were shaken and then incubated at ambient temperature for 120 minutes. At the end of the incubation, 20 μL of 2× stop buffer (Streptavidin-Dylight 650/100 mL catalogue number: 8454B (Invitrogen™/Life Technologies/ThermoFisher Scientific Inc., Waltham, Mass., USA); Europium-tagged pY20 antibody (PerkinElmer™ catalogue number: AD0067 (PerkinElmer™, Waltham, Mass., USA)); EDTA; HEPES; and Triton™ X-100 (Sigma-Aldrich, St. Louis, Mo., USA) was added to quench the reaction.
[2] = molecular target: Tyrosine-protein kinase JAK1 (Homo sapiens, UniProt P23458); assay: as §1
Tyrosine-protein kinase JAK1, sequence (P23458 whole entry): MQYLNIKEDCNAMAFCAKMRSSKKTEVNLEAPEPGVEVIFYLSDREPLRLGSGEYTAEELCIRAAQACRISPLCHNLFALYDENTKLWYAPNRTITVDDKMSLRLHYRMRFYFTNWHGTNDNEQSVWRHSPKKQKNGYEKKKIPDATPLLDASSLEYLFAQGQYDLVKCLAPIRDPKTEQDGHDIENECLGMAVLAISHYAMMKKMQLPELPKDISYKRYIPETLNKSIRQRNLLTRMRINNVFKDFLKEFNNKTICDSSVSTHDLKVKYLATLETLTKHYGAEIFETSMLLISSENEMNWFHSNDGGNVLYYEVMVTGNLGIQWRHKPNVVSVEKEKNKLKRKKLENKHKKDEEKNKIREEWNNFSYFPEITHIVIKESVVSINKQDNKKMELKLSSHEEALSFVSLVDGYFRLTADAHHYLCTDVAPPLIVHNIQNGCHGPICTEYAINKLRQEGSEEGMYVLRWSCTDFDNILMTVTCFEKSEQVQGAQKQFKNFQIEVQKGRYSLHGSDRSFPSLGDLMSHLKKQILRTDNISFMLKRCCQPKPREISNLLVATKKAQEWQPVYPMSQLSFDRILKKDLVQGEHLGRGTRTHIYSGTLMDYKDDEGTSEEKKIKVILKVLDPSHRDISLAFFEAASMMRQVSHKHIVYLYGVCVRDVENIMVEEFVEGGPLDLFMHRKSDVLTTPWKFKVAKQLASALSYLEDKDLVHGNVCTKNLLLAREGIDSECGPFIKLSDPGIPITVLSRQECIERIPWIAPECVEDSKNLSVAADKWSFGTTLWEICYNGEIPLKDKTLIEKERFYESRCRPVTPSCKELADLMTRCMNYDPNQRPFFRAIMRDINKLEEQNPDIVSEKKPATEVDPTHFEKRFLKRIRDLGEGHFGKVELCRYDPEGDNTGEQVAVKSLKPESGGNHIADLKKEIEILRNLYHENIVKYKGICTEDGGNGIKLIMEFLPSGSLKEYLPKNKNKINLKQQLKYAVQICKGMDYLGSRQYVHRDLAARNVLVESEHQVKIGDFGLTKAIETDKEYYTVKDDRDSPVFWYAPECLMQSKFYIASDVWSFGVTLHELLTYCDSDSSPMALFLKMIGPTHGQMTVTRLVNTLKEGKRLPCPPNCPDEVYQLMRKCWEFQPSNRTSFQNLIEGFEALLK

Tyrosine-protein kinase JAK2, sequence (O60674 whole entry): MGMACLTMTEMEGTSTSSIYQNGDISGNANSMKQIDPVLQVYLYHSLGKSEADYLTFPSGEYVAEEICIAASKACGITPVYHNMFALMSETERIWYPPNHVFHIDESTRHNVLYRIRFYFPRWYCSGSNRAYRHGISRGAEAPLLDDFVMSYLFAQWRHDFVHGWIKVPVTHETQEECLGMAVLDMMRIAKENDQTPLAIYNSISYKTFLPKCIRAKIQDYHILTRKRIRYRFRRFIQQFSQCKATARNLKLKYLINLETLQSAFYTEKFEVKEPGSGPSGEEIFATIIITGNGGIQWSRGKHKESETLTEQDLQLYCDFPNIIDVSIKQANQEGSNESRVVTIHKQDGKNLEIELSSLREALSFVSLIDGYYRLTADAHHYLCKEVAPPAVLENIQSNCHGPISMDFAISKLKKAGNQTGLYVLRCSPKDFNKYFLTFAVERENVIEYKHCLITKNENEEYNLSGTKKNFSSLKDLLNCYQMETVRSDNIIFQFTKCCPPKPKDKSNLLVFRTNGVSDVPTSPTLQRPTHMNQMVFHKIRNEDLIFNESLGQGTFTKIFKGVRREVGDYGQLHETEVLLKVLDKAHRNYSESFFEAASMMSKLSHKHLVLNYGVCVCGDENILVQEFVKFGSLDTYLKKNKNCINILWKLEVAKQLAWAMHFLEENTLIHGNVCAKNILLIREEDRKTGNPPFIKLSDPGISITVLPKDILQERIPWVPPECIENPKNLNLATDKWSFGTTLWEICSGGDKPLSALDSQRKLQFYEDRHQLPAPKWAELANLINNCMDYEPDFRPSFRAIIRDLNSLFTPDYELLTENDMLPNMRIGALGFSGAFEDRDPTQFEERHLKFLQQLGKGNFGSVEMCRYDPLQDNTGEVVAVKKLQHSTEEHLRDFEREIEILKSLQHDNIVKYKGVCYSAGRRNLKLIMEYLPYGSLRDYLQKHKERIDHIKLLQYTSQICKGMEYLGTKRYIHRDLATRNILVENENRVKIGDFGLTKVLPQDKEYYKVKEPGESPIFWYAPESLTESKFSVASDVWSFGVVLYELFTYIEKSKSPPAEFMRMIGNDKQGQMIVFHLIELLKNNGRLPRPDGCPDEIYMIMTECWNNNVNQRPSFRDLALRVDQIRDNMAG

IC50 [1] | IC50 [2] | Compound
1.35 nM | 0.16 nM | N#C[C@H]1CCOC[C@@H]1n1cc(C(N)=O)c(Nc2ccc(OC(F)(F)F)cc2)n1
 | 2.09 nM | N#C[C@H]1CCOC[C@@H]1n1cc(C(N)=O)c(Nc2ccc(Cl)c(Cl)c2)n1

Reference: ChEMBL document CHEMBL5727955, “Aminopyrazoles as janus kinase inhibitors” (2020)
